≈ marks a conversion by molar mass, not a printed value.
Columns and labels:
[1] = clinical pathology (serum clinical chemistry) in mice; type: in vivo; settings: CD-1 mice, 20 mg/kg intravenously daily for 9 days, sera day 10
Procedure: 20-day-old CD-1 mice were divided into a vehicle control group (5 mice) and a treatment group (5 mice). Samples of glycopeptide antibiotics were administered at 20 mg/kg intravenously daily for 9 days.

[2] = anatomic pathology (histopathology of heart and kidney) in mice; type: in vivo; settings: CD-1 mice, 20 mg/kg intravenously daily for 9 days, necropsy day 10, microscopic histopathology
Procedure: Samples of tissues from necropsied mice were formalin-fixed, paraffin-embedded, sectioned, stained with hematoxylin and eosin, and examined microscopically. Histopathologic findings were recorded. These findings were subjectively graded on a scale corresponding to slight, mild, moderate, marked and severe as compared to untreated controls.

Escherichia coli = assay: in vitro antibacterial evaluation, MIC by broth dilution; type: cell-based; settings: 18 hours at 35° C.
[3] = system: Staphylococcus aureus-SMITH (GC 4543); assay: acute lethal infection in mice; type: in vivo; settings: acute lethal infection, female CD-1 mice, intraperitoneal challenge, intravenous 30 min. after infection, 7 day survival
Method in brief: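 Intraperitoneal challenge of female CD-1 mice with a bacterial dose lethal to untreated animals within 24-48 hr; single iv treatment 30 min later, 5 mice per dose level. Survival is scored at day 7 and pooled from three experiments to give the median effective dose.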

Streptococcus sp. = assay: in vitro antibacterial evaluation, MIC by broth dilution; type: cell-based; settings: broth dilution, 18 hours at 35° C.
Method in brief: (§1)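 Broth dilution per NCCLS standard M7-A2 in Muller-Hinton II […], with an inoculum of 5×10^5 CFU/mL and antibiotic spanning 64-0.06 μg/mL. The MIC is the lowest concentration that inhibits growth of the organism.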

Staphylococcus sp. = assay: as above; type: cell-based; settings: broth dilution, 18 hours at 35° C.
Method in brief: as §1

Enterococcus sp. = assay: as above; type: cell-based; settings: broth dilution, 18 hours at 35° C.
Method in brief: as §1

COc1ccc2cc(COCC3OC(OC4C(CO)OC(Oc5ccc(CC6NC(=O)C(C(C)c7ccccc7)NC(=O)CNC(=O)C(CO)NC(=O)C(C(O)C7CNC(=N)N7C7OC(CO)C(O)C(O)C7O)NC(=O)C(C(O)C7CNC(=N)N7)NC6=O)cc5)C(O)C4O)C(O)C(O)C3O)ccc2c1 (stereo not drawn) [Example 230, Cyclo[glycyl-β-methylphenylalanyl-O-[4-O-[6-O-[(6-methoxy-2-naphthyl)methyl]hexopyranosyl]hexopyranosyl]tyrosyl-3-(2-iminoimidazolidin-4-yl)seryl-3-(3-hexopyranosyl-2-iminoimidazolidin-4-yl)serylseryl]]
Clinical Chemistry (Day 10) % of Control, BUN [1]: +179% | Clinical Chemistry (Day 10) % of Control, Creatinine [1]: +124% | Anatomical Pathology (Day 10), Heart [2]: 0 | Anatomical Pathology (Day 10), Kidney [2]: +++ | MIC Escherichia coli (ATCC 25922) (Escherichia coli): 64 µg/mL (≈ 43.7 µM) | MIC Escherichia coli (GC 4559) (Escherichia coli): >64 µg/mL | MIC Escherichia coli (GC 4560) (Escherichia coli): 1 µg/mL (≈ 0.682 µM) | median effective dose (ED50), Staphylococcus aureus-SMITH (GC 4543) [3]: 0.12 mg/kg | MIC Streptococcus agalactiae (GC 4564) (Streptococcus sp.): 0.5 µg/mL (≈ 0.341 µM) | MIC Streptococcus pneumoniae (ATCC 6301) (Streptococcus sp.): 0.12 µg/mL (≈ 0.0819 µM) | MIC Streptococcus pneumoniae (GC 1894) (Streptococcus sp.): <0.06 µg/mL | MIC Streptococcus pneumoniae (GC 4565) (Streptococcus sp.): 0.12 µg/mL (≈ 0.0819 µM) | MIC Streptococcus pyogenes (GC 4563) (Streptococcus sp.): 0.25 µg/mL (≈ 0.171 µM) | MIC Streptococcus pneumoniae (ATCC 6301) (Streptococcus sp.; inoculum 5×10^5 CFU/mL, strain ATCC 6301): 0.12 µg/mL (≈ 0.0819 µM) | MIC Streptococcus pneumoniae (GC 1894) (Streptococcus sp.; inoculum 5×10^5 CFU/mL, strain GC 1894): <0.06 µg/mL | MIC Streptococcus pyogenes (GC 4563) (Streptococcus sp.; inoculum 5×10^5 CFU/mL, strain GC 4563): 0.25 µg/mL (≈ 0.171 µM) | MIC Streptococcus agalactiae (GC 4564) (Streptococcus sp.; inoculum 5×10^5 CFU/mL, strain GC 4564): 0.5 µg/mL (≈ 0.341 µM) | MIC Streptococcus pneumoniae (GC 4565) (Streptococcus sp.; inoculum 5×10^5 CFU/mL, strain GC 4565): 0.12 µg/mL (≈ 0.0819 µM) | MIC Coagulase Negative Staphylococcus (GC 4547) (Staphylococcus sp.): 1 µg/mL (≈ 0.682 µM) | MIC Coagulase Negative Staphylococcus (GC 4548) (Staphylococcus sp.): 0.5 µg/mL (≈ 0.341 µM) | MIC Coagulase Negative Staphylococcus (GC 4549) (Staphylococcus sp.): 1 µg/mL (≈ 0.682 µM) | MIC Coagulase Negative Staphylococcus (GC 4551) (Staphylococcus sp.): 2 µg/mL (≈ 1.36 µM) | MIC Coagulase Negative Staphylococcus (GC 6257) (Staphylococcus sp.): 0.5 µg/mL (≈ 0.341 µM) | MIC Staphylococcus aureus (ATCC 29213) (Staphylococcus sp.): 2 µg/mL (≈ 1.36 µM) | MIC Staphylococcus aureus (GC 1131) (Staphylococcus sp.): 2 µg/mL (≈ 1.36 µM) | MIC Staphylococcus aureus (GC 3051) (Staphylococcus sp.): 2 µg/mL (≈ 1.36 µM) | MIC Staphylococcus aureus (GC 3053) (Staphylococcus sp.): 2 µg/mL (≈ 1.36 µM) | MIC Staphylococcus aureus (GC 4541) (Staphylococcus sp.): 1 µg/mL (≈ 0.682 µM) | MIC Staphylococcus aureus (GC 4542) (Staphylococcus sp.): 2 µg/mL (≈ 1.36 µM) | MIC Staphylococcus aureus (GC 4544) (Staphylococcus sp.): 2 µg/mL (≈ 1.36 µM) | MIC Staphylococcus aureus (GC 4545) (Staphylococcus sp.): 1 µg/mL (≈ 0.682 µM) | MIC Staphylococcus aureus-SMITH (GC 4543) (Staphylococcus sp.): 1 µg/mL (≈ 0.682 µM) | MIC Staphylococcus haemolyticus (GC 4546) (Staphylococcus sp.): 1 µg/mL (≈ 0.682 µM) | MIC Staphylococcus aureus (ATCC 29213) (Staphylococcus sp.; strain ATCC 29213): 2 µg/mL (≈ 1.36 µM) | MIC Staphylococcus aureus (GC 1131) (Staphylococcus sp.; strain GC 1131): 2 µg/mL (≈ 1.36 µM) | MIC Staphylococcus aureus (GC 3051) (Staphylococcus sp.; strain GC 3051): 2 µg/mL (≈ 1.36 µM) | MIC Staphylococcus aureus (GC 3053) (Staphylococcus sp.; strain GC 3053): 2 µg/mL (≈ 1.36 µM) | MIC Staphylococcus aureus (GC 4541) (Staphylococcus sp.; strain GC 4541): 1 µg/mL (≈ 0.682 µM) | MIC Staphylococcus aureus (GC 4542) (Staphylococcus sp.; strain GC 4542): 2 µg/mL (≈ 1.36 µM) | MIC Staphylococcus aureus-SMITH (GC 4543) (Staphylococcus sp.; strain GC 4543): 1 µg/mL (≈ 0.682 µM) | MIC Staphylococcus aureus (GC 4544) (Staphylococcus sp.; strain GC 4544): 2 µg/mL (≈ 1.36 µM) | MIC Staphylococcus aureus (GC 4545) (Staphylococcus sp.; strain GC 4545): 1 µg/mL (≈ 0.682 µM) | MIC Staphylococcus haemolyticus (GC 4546) (Staphylococcus sp.; strain GC 4546): 1 µg/mL (≈ 0.682 µM) | MIC Coagulase Negative Staphylococcus (GC 4547) (Staphylococcus sp.; strain GC 4547): 1 µg/mL (≈ 0.682 µM) | MIC Coagulase Negative Staphylococcus (GC 4548) (Staphylococcus sp.; strain GC 4548): 0.5 µg/mL (≈ 0.341 µM) | MIC Coagulase Negative Staphylococcus (GC 4549) (Staphylococcus sp.; strain GC 4549): 1 µg/mL (≈ 0.682 µM) | MIC Coagulase Negative Staphylococcus (GC 4551) (Staphylococcus sp.; strain GC 4551): 2 µg/mL (≈ 1.36 µM) | MIC Coagulase Negative Staphylococcus (GC 6257) (Staphylococcus sp.; strain GC 6257): 0.5 µg/mL (≈ 0.341 µM) | MIC Enterococcus avium (GC 4558) (Enterococcus sp.): 8 µg/mL (≈ 5.46 µM) | MIC Enterococcus faecalis (ATCC 29212) (Enterococcus sp.): 8 µg/mL (≈ 5.46 µM) | MIC Enterococcus faecalis (GC 2242) (Enterococcus sp.): 8 µg/mL (≈ 5.46 µM) | MIC Enterococcus faecalis (GC 2691) (Enterococcus sp.): 4 µg/mL (≈ 2.73 µM) | MIC Enterococcus faecalis (GC 3059) (Enterococcus sp.): 8 µg/mL (≈ 5.46 µM) | MIC Enterococcus faecalis (GC 4552) (Enterococcus sp.): 8 µg/mL (≈ 5.46 µM) | MIC Enterococcus faecalis (GC 4553) (Enterococcus sp.): 8 µg/mL (≈ 5.46 µM) | MIC Enterococcus faecalis (GC 4554) (Enterococcus sp.): 8 µg/mL (≈ 5.46 µM) | MIC Enterococcus faecalis (GC 6189) (Enterococcus sp.): 4 µg/mL (≈ 2.73 µM) | MIC Enterococcus faecium (GC 2243) (Enterococcus sp.): 8 µg/mL (≈ 5.46 µM) | MIC Enterococcus faecium (GC 4556) (Enterococcus sp.): 8 µg/mL (≈ 5.46 µM) | MIC Enterococcus faecium (GC 4557) (Enterococcus sp.): 2 µg/mL (≈ 1.36 µM) | MIC Enterococcus faecalis (ATCC 29212) (Enterococcus sp.; inoculum 5×10^5 CFU/mL, strain ATCC 29212): 8 µg/mL (≈ 5.46 µM) | MIC Enterococcus faecalis (GC 2242) (Enterococcus sp.; inoculum 5×10^5 CFU/mL, strain GC 2242): 8 µg/mL (≈ 5.46 µM) | MIC Enterococcus faecium (GC 2243) (Enterococcus sp.; inoculum 5×10^5 CFU/mL, strain GC 2243): 8 µg/mL (≈ 5.46 µM) | MIC Enterococcus faecalis (GC 2691) (Enterococcus sp.; inoculum 5×10^5 CFU/mL, strain GC 2691): 4 µg/mL (≈ 2.73 µM) | MIC Enterococcus faecalis (GC 3059) (Enterococcus sp.; inoculum 5×10^5 CFU/mL, strain GC 3059): 8 µg/mL (≈ 5.46 µM) | MIC Enterococcus faecalis (GC 4552) (Enterococcus sp.; inoculum 5×10^5 CFU/mL, strain GC 4552): 8 µg/mL (≈ 5.46 µM) | MIC Enterococcus faecalis (GC 4553) (Enterococcus sp.; inoculum 5×10^5 CFU/mL, strain GC 4553): 8 µg/mL (≈ 5.46 µM) | MIC Enterococcus faecalis (GC 4554) (Enterococcus sp.; inoculum 5×10^5 CFU/mL, strain GC 4554): 8 µg/mL (≈ 5.46 µM) | MIC Enterococcus faecium (GC 4556) (Enterococcus sp.; inoculum 5×10^5 CFU/mL, strain GC 4556): 8 µg/mL (≈ 5.46 µM) | MIC Enterococcus faecium (GC 4557) (Enterococcus sp.; inoculum 5×10^5 CFU/mL, strain GC 4557): 2 µg/mL (≈ 1.36 µM) | MIC Enterococcus avium (GC 4558) (Enterococcus sp.; inoculum 5×10^5 CFU/mL, strain GC 4558): 8 µg/mL (≈ 5.46 µM) | MIC Enterococcus faecalis (GC 6189) (Enterococcus sp.; inoculum 5×10^5 CFU/mL, strain GC 6189): 4 µg/mL (≈ 2.73 µM)

From patent US6914045B2, “Glycopeptide antibiotics” (Wyeth Holdings Corporation, priority 2001, dated 2005)
